In assay [1] the target is Delta-type opioid receptor (Homo sapiens, UniProt P41143).
Assay [2] deals with Nociceptin receptor (Mus musculus, UniProt P35377).
Assay [3] deals with Nociceptin receptor (Rattus norvegicus, UniProt P35370).
Another assay has as its target Mu-type opioid receptor (Homo sapiens, UniProt P35372).
Assay [4] has as its target Nociceptin receptor (Cavia porcellus).
Assay [5] deals with Kappa-type opioid receptor (Homo sapiens, UniProt P41145).
Assay [6] deals with Nociceptin receptor (Homo sapiens, UniProt P41146).
Sequence of Nociceptin receptor (Homo sapiens, UniProt P41146) (P41146 whole entry): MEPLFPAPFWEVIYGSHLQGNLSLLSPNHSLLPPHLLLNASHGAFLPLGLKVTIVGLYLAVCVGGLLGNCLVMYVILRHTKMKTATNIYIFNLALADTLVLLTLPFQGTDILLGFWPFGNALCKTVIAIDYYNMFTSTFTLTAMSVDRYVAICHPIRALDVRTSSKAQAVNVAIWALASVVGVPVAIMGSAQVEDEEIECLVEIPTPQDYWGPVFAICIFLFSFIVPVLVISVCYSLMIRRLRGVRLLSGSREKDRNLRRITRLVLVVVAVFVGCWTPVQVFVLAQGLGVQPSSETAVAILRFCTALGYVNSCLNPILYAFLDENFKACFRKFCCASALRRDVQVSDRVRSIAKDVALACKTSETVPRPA

Molecules are shown by their SMILES. “And” between values parts separate entries of the source, which are not always exact repeats. Equal values may be shown once.

Sequence of Nociceptin receptor (Mus musculus, UniProt P35377) (P35377 whole entry): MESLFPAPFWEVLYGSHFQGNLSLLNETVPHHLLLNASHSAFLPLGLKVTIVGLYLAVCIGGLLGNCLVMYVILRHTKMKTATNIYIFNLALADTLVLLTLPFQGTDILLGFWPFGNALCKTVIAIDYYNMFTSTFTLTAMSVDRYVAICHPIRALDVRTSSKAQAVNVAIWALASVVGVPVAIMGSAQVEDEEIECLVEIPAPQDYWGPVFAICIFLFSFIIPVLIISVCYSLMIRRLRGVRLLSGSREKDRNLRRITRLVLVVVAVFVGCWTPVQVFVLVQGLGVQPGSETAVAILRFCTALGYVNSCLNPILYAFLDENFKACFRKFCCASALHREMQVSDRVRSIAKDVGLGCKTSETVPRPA
Sequence of Mu-type opioid receptor (P35372 whole entry): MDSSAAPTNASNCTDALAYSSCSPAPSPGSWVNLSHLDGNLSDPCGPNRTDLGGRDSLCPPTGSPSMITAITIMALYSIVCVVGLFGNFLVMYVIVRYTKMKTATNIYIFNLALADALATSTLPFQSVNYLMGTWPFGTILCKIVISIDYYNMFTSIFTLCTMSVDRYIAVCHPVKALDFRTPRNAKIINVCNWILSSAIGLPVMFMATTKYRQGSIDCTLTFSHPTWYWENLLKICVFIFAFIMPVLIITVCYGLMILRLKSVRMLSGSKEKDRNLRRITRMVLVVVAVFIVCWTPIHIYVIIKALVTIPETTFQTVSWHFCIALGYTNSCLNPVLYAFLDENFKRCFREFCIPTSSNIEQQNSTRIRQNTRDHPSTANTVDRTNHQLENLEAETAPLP
Sequence of Nociceptin receptor (Rattus norvegicus, UniProt P35370) (P35370 whole entry): as the sequence (P35377 whole entry) above, with F9Y, A335S counted along it
Sequence of Kappa-type opioid receptor (P41145 whole entry): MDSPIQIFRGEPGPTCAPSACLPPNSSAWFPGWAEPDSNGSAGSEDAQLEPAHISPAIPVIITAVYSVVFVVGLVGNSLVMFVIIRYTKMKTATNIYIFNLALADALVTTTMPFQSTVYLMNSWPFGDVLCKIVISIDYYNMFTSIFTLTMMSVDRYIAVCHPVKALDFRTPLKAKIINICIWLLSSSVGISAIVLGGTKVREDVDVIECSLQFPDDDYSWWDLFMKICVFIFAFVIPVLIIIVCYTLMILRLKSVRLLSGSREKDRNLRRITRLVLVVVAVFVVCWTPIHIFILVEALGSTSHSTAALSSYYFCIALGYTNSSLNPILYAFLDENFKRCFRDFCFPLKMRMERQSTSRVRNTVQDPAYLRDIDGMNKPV
Sequence of Delta-type opioid receptor (P41143 whole entry): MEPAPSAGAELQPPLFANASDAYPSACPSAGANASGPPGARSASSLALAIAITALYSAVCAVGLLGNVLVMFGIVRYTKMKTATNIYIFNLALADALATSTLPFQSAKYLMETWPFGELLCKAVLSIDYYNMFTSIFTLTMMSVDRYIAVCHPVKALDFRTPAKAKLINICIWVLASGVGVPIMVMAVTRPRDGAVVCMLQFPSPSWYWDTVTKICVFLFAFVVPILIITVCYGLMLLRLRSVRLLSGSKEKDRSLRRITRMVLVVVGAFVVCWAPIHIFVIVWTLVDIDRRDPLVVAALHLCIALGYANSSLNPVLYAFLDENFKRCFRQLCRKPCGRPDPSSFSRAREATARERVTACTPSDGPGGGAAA

In general, Ki refers to the equilibrium dissociation constant of an inhibitor or competing ligand from its target. Read a high Ki as lower affinity. A word on the EC50: it is the concentration that produces a half-maximal response. For the compound `C[C@H](NC(=O)CNC(=O)[C@@H](NC(=O)[C@H](Cc1ccc(F)cc1)NC(=O)CNC(=O)CNC(=O)[C@@H](N)Cc1ccccc1)[C@@H](C)O)C(=O)N[C@@H](CCCNC(=N)N)C(=O)N[C@@H](CCCCN)C(=O)N[C@@H](CO)C(=O)N[C@@H](C)C(=O)N[C@@H](CCCNC(=N)N)C(=O)N[C@@H](CCCCN)C(=O)N[C@@H](CCCNC(=N)N)C(=O)N[C@@H](CCCCN)C(=O)N[C@@H](CC(N)=O)C(=O)N[C@@H](CCC(N)=O)C(N)=O` [OFQ/N UFP-102], the Ki in assay [1] is 380 nM; on Nociceptin receptor [2], 0.38 nM and 0.65 nM and 0.36 nM; at Nociceptin receptor [3] it was 2.69 nM; on Mu-type opioid receptor, 70.8 nM; in assay [5], 4.79 nM; on Nociceptin receptor [6], 0.076 nM and 0.068 nM and 0.021 nM. Further, in assay [4], a half-maximal effect (EC50) was put at 0.58 nM.

Source of the values: BindingDB's records for doi:10.1124/jpet.104.077339 (Section of Pharmacology, 2005).
